Measured values reported in publication PMC10388301, “Exploring the Anticancer Activity of Tamoxifen-Based Metal Complexes Targeting Mitochondria” (Journal of Medicinal Chemistry, 2023).

Target: T1, thioredoxin reductase 1 (TrxR1, cytosolic) (Rattus norvegicus, UniProt O89049)
T1 construct: gene Txnrd1; highly purified enzyme from rat liver
T1 sequence (O89049 1-499): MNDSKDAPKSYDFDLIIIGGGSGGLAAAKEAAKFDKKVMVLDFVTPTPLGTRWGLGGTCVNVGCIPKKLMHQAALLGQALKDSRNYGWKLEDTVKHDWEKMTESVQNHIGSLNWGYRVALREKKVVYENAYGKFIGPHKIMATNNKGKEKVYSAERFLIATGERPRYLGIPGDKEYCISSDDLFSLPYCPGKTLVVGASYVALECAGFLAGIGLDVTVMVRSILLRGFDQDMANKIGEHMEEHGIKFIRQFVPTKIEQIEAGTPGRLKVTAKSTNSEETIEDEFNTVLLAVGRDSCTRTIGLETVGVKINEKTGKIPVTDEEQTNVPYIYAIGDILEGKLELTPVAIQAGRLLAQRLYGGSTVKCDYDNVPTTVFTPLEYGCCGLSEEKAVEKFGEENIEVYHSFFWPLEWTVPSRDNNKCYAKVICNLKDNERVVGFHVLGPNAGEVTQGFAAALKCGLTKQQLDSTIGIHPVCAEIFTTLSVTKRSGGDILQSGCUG
Assay: DTNB reduction assay on purified rat liver TrxR1; BIAM labelling of Sec/Cys residues
Assay type: biochemical

SMILES: CCC(=C(c1ccc(OC)cc1)c1ccc(OC)cc1)c1cc[n+]2c(c1)-c1cccc[n+]1[Au-]2([Cl])[Cl].F[P-](F)(F)(F)(F)F [AuTAML]
- DTNB reduction assay on purified rat liver TrxR1; BIAM labelling of Sec/Cys resi: a strong inhibition of TrxR1 activity was observed at low nanomolar concentrations of the Au(III) complex
